These are literature values, as cited in US20060153940A1, “Use of physiologically active fatty acids” (priority 2004, published 2006).

Regarding β-escin, where the note is “alcohol”, the solubility in alcohol entry is recorded as “can be dissolved in alcohol”. Also, the solubility in water entry (water) is reported as “practically water-insoluble”.
